Source: US6750221B1 (BASF Aktiengesellschaft, priority 1999, dated 2004)
Like-named read-outs stand apart in the source and are kept apart here.

Columns and labels:
[1] = target: T1, h5-HT5 receptor (Homo sapiens, UniProt P47898); assay: [3H]-5-CT binding competition on h5-HT5 membranes
T1 construct: expressed in transfected cells; host or cells: HEK293 cells (CHO cells obtained analogously), pcDNA3 plasmid, neomycin selection; membranes prepared
Experimental: Membranes obtained according to Example 2 (200 μl) were incubated in the presence of 2 nM [^3H]-5-CT in a total volume of 600 μl in buffer B with increasing concentrations of selected compounds. After an incubation time of 75 min at 30° C., the samples were filtered at 4° C. through GF/B filters embedded in 0.3% polyethyleneimide using buffer B. The filters were washed with 9 ml of buffer B. The radioactivity retained on the filters was determined as in Reference Example 3.
According to Reference Example 4, the binding affinities of serotoninergic compounds were determined by means of [^3H]-5-CT binding competition.

[2] = system: hippocampal neurons; assay: Neuroprotective action: experimental brain trauma of the rat (lateral fluid percussion); format: in vivo; settings: 20 + 20 mg/kg i.p., 15 + 120 min post trauma; 14 days after traumatization
From the text: The lateral fluid percussion method (McIntosh TK, Neuroscience 28, 233 244, 1989) was used in order to produce an experimental brain trauma in the rat which is suitable for the testing of potential neuroprotective substances. By means of this technique, controlled and consistent tissue damage was produced underneath the site of the impact, which included the neocortex, the hippocampus and the thalamus.
The right parietotemporal region of the skull was exposed in the anesthetized rat. The skull was trepanned through the parietal cortex (about 4 mm diameter), the dura being left intact. A Luer lock attachment was fixed to the skull using dental cement through the trepanation. After the dental cement had hardened, the rat was connected to the fluid percussion apparatus according to McIntosh. This consisted of a cylinder filled with 0.9% NaCl solution, one end of the cylinder being closed by a piston, while the other end was connected via a pressure transducer to a Luer lock attachment. […]
The rats were sacrificed 14 days after traumatization for removal of the brain. […] For the quantification of the neuronal damage, cell counts were carried out bilaterally in the rostral hippocampus; the proportion of intact cells in the dentate gyrus was determined on the traumatized (right) and the (left) opposite side. […]

[3] = system: male Long Evans rats; assay: Neuroprotective action: MCA occlusion (experimental cerebral stroke); format: in vivo, rat; settings: 90 min after MCA occlusion, infarct volume 22 hours after occlusion
Experimental: The experiments were performed on male Long Evans rats. Under nitrous oxide-assisted halothane anesthesia, the middle cerebral artery (MCA) was severed and permanently ligated distally, as described in the literature. The resulting infarct volume was determined 22 hours after MCA occlusion.

[4] = target: T1, h5-HT5 receptor; assay: Saturation binding of [3H]-5-CT to membranes of h5-HT5 receptor-expressing cells; settings: 30° C., 90 min, read-out: dissociation constant Kd
Experimental: The gene coding for the human 5-HT5 receptor was isolated from human tissues in a known manner by means of 3′-5′-RT-PCR (RACE system, Boehringer Mannheim). The gene sequence was then inserted into a plasmid carrying the neomycin resistance gene (pcDNA3; Invitrogen, Germany) and amplified in E. coli according to the manufacturer's instructions. A preparation of the resulting plasmid was mixed with Lipofectamin® (Gibco Life-Sciences, Germany), and HEK293 cells were incubated with a thin layer of this transfection mixture in petri dishes (2.5 cm). The transfection mixture was then replaced by neomycin-containing culture medium. […]
The methodology is essentially known (Ress S. et al., FEBS Letters 335:242-246 (1994)). […] The filters were washed at 4° C. with 9 ml of buffer B. The radioactivity retained on the filters was measured by means of liquid scintillation counting, 5 ml of Ultima-Gold (Packard) being used.
The saturation parameters of the [^3H]-5-CT binding was determined both by nonlinear regression analysis and from linear plots using the SigmaPlot software (Jandel Scientific, Germany). Competition curves were set up in which the radioactive binding is expressed as a percentage proportion of the total binding. Half maximal inhibition constants IC50 and Hill-coefficients (nH) were determined by means of nonlinear regression analysis. […]

[5] = 2 + 1 mg/kg + mg/kg/h i.v. bolus then infusion

T1 sequence (P47898 whole entry): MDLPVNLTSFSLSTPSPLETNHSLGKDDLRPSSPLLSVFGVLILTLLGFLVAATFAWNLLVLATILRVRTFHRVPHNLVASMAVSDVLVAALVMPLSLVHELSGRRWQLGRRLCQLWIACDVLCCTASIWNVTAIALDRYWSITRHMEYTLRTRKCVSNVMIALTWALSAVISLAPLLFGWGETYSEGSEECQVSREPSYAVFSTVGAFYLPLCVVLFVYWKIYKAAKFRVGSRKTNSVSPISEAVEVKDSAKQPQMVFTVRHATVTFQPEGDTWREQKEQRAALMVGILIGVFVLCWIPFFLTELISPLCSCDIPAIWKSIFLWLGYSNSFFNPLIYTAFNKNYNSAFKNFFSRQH

| Structure (SMILES) | Ki [1] [nM] | Quotient m ± sm of neuron count of the trauma side to the contralateral side (hippocampus) [2] | Infarct volume, % of the control [mean value ± SD] [3, 5] | also measured |
| --- | --- | --- | --- | --- |
| CCN1CCc2sc3ncn(CCN4CCN(c5cccc6ccccc56)CC4)c(=O)c3c2C1 [Compound B, 3,4,5,6,7,8-Hexahydro-6-ethyl-3-[2-(4-(1-naphthyl)piperazin-1-yl)ethyl]pyrido[3′,4′:4,5]thieno[2,3-d]pyrimidin-4-one] | 124 | 0.64 ± 0.03 | 66 ± 19 % of the control |  |
| COc1ccc2cccc(N3CCN(CCn4cnc5sc6c(c5c4=O)CCN(C)C6)CC3)c2c1 [Compound C] | 237 | 0.56 ± 0.05 |  | Infarct volume, % of the control ([3]; 1 + 0.5 mg/kg + mg/kg/h i.v. bolus then infusion): 67 % of the control |
| NCCc1c[nH]c2ccc(C(N)=O)cc12 [Compound 5-CT, 5-carboxamidotryptamine, reference compound] |  |  |  | Ki ([1]; 2 nM [3H]-5-CT, 75 min at 30° C., Ki=IC50/(1+C/Kd)): 1.44 nM; Kd [4]: 0.57 nM |
| CCCN(CCC)C1CCc2cccc(O)c2C1 (stereo not drawn) [R(+)-8-OH-DPAT, 8-hydroxy-2-(di-n-propylamino)tetralin, reference compound] |  |  | 72 ± 32 % of the control |  |
| CN1CCc2c(sc3ncn(CCN4CCN(c5cccc(C(F)(F)F)c5)CC4)c(=O)c23)C1 [Compound A, 3,4,5,6,7,8-Hexahydro-7-methyl-3-[2-(4-(3-trifluoromethyl-phenyl)piperazin-1-yl)ethyl]pyrido[4′,3′:4,5]thieno[2,3-d]-pyrimidin-4-one] | 661 |  |  | Infarct volume, % of the control [mean value ± SD] ([3]; 4 + 2 mg/kg + mg/kg/h i.v. bolus then infusion): 62 ± 18 % of the control |
